Data reported in patent US20140205582A1, “MEGAKARYOCYTE PROGENITOR CELLS FOR PRODUCTION OF PLATELETS” (CELLERANT THERAPEUTICS, INC., priority 2011, published 2014).
Entries after “also recorded” stand apart in the source; their conditions may differ.

System: human CD34+ cells
Assay: Expansion of CD34+ cells into MKPs in serum-free culture
Assay type: cell-based
Details: 60 ng/ml IL-9 with TPO mimetic and IL-1, 8 days, 3 donors
Source text: Isolation of human CD34^+ cells. G-CSF mobilized peripheral blood was harvested from healthy donors via leukapheresis (see, e.g., Kawamoto et al. (2009) Stem Cells 27:2857). CD34+ cells were positively selected using magnetic beads (Dynal, Lake Success, N.Y.) linked to anti-CD34 monoclonal antibody on an Isolex Device (Baxter, Deerfield, Ill.). […] Aliquots of 15-20×10^6 cells/ml were cryopreserved until use.
Expansion of CD34^+ cells. CD34^+ cells from donors were thawed, pooled as indicated, and seeded at 5×10^5 cells/ml in serum-free X-vivo 15 medium (Lonza, Walkersville, Md.) supplemented with IX GlutaMAX (Invitrogen, Carlsbad, Calif.). Cytokines were added as follows. […] Cultures were incubated at 37° C. in a humidified atmosphere containing 5% carbon dioxide. Viable cells were counted daily and cell concentration was readjusted to about 5×10^5 cells/ml by the addition of fresh medium with cytokines.
Analysis of MKPs. Cell surface marker expression was analyzed by flow cytometry using CD15b, CD33, CD34, CD41, CD42a, CD90, and CD184 antibodies. Prior to antibody staining, cells were washed with HBSS containing 2% BSA and blocked with rat and mouse IgG (SouthernBiotech, Birmingham, AL) for 10 minutes at 4° C. […]

**Q.** How did the “effect on number of MKPs” value turn out when “IL-9: interleukin-9 cytokine, also known as megakaryoblast growth factor” was run?
**A.** Its value is “increased the number of MKPs from all 3 donors; also recorded: increases the size of all populations”.
